One assay has as its target T1, DC-SIGN S-ECD (Homo sapiens, UniProt Q9NNX6).
T1 construct: The ECD of DC-SIGN (residues 66–404) was overexpressed and purified as previously described; made in house
T1 sequence (Q9NNX6 66-404): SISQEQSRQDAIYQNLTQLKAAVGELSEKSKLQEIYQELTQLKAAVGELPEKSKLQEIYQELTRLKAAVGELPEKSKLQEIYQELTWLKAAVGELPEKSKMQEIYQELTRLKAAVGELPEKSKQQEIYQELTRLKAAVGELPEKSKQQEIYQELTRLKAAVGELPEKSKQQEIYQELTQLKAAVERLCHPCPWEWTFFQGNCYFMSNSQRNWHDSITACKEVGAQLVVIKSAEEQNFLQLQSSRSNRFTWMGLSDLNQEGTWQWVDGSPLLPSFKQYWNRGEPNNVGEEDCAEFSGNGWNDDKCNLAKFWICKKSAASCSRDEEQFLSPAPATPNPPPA
The assay can be described thus: SPR direct interaction assay on oriented DC-SIGN S-ECD surface. The format is binding. As to conditions: SPR direct interaction, oriented tetrameric DC-SIGN ECD surface, apparent Kd; read-out: Kdapp. On the procedure:
(§1) The affinity of the clusters for the extracellular domain (ECD) of the DC-SIGN receptor (DC-SIGN ECD) was estimated via surface plasmon resonance (SPR) assays (Tabarani et al., [2009]). The apparent Kd was calculated in direct interaction mode using a surface functionalized in an oriented manner with DC-SIGN ECD. In this assay, tetrameric DC-SIGN ECD is attached to the surface of the sensor chip via the N-terminus of its neck oligomerization domain, thus presenting its four carbohydrate recognition domains toward the solvent, realistically mimicking the presentation of the receptor on cell surface (Porkolab et al., [2019]). For some of the low affinity ligands, in the mM range, it was not possible to determine their affinity with this assay, and therefore a competition experiment was performed providing IC50 values (Timpano et al., [2008]) (Figure 3A). […] When comparing equivalent clusters, the α1,2-di-mannoside (B series) bound with the highest affinity (Figure 3A). […] A potential explanation for this effect could be that the spacing of clusters is more important for the larger tri-mannosides.
The direct interaction experiments were executed on a T200 Biacore with a CM3 series S sensor chip. Contrary to the competition assay described above, in this test, DC-SIGN ECD used harbors a StreptagII in its N-terminus (DC-SIGN S-ECD) to allow its capture and functionalization onto the surface in an oriented manner. Flow cells were functionalized as previously described (Porkolab et al., [2019]). Briefly, after EDC/NHS activation, flow cells were functionalized with streptactin protein in a first step. Flow cell 1 was used as control, while other flow cells were, in a second round of activation, functionalized with 100 μg/mL of a DC-SIGN S-ECD up to a final density ranging between 2,500 and 3,000 RU, via tag specific capture and linkage by amine coupling chemistry simultaneously. The compounds were injected in running buffer of 25 mM Tris pH 8, 150 mM NaCl, 4 mM CaCl2, 0.05% Tween 20 onto the surface at increasing concentrations with a flow rate of 30 μL/min. The ligand titration led to the determination of an apparent Kd value. The data was analyzed in BIAcore BIAevaluation software for direct interaction 1:1 calculation assuming that the Kd will reflect the affinity of the ligands (glycoclusters) for the DC-SIGN oriented surface used as a whole.

A further assay concerns DC-SIGN on moDC. The assay can be described thus: Binding of biotinylated mannoside library to moDCs by flow cytometry. In kind it is cell-based, human. The settings on record: 10 μM biotinylated cluster, 30 min at 4°C, streptavidin staining. Here is the method:
Next, we assessed the binding of our clusters to cellular DC-SIGN using moDCs (Figure 3B, Supplementary Figure 1B). To this end, binding of the clusters a1–a6, b1–b6, c1–c6, d1–d6, and e1–e6, decorated with a biotin handle, was determined by flow cytometry. Clusters were bound to moDCs for 30 min at 4°C. By staining using fluorophore-conjugated streptavidin and washing at 4°C, the bound clusters could be quantified by flow cytometry. […] In control experiments ligand binding to DC-SIGN was inhibited using a blocking anti-DC-SIGN antibody (Supplementary Figure 1C).
Approximately 10^5 day 5 moDCs were washed and resuspended in 100 μL culture medium (pre-cooled to 4°C). 20 μg/mL AZN-D1 (anti-DC-SIGN, in house Geijtenbeek et al., [2002]) or purified mouse anti-human CD206 antibody (Clone 19.2, BD Bioscience) was added to the moDCs and pre-incubated for 45 min on ice. Subsequently, 10 μM of the biotinylated mannoside clusters or 1 μg/mL of Lewis^Y-conjugated polyacrylamide (positive control) was added, and incubated for 30 min at 4°C. Cells were then washed with pre-cooled PBS (4°C), and stained with Alexa647-labeled streptavidin (Invitrogen^TM) in PBS supplemented with 0.5% BSA and 0.02% NaN3 (PBA) for 30 min at 4°C. Upon washing in ice-cold PBA and fixation in PBS with 0.5% PFA, the fluorescence was measured by flow cytometry (CyAn™ ADP with Summit™ Software), and further analyzed using FlowJo v10.

The target of a further assay is T2, DC-SIGN ECD (Homo sapiens, UniProt Q9NNX6).
T2 construct: The ECD of DC-SIGN (residues 66–404) was overexpressed and purified as previously described; made in house
T2 sequence (Q9NNX6 66-404): T1 sequence (Q9NNX6 66-404)
The experiment in a line: SPR competition (inhibition) assay, DC-SIGN ECD on BSA-mannotriose surface. The format is binding. As to conditions: DC-SIGN ECD 20 μM. On the procedure:
as §1
The ECD of DC-SIGN (residues 66–404) was overexpressed and purified as previously described (Tabarani et al., [2009]). The DC-SIGN S-ECD construct used for direct interaction experiment (see below) has been overexpressed and purified as described elsewhere (Porkolab et al., [2019]). The SPR competition experiments were performed on a BIAcore T200 using a CM3 series S sensor chip. Flow cells were activated as previously described (Halary et al., [2002]). Flow cell 1 was functionalized with BSA, blocked with ethanolamine and subsequently used as a control surface. Flow cells 2 and 3 were treated with BSA-Man α1-3[Manα1-6]Man (Dextra) (60 μg/mL) in 10 mM NaOAc pH 4 and blocked with ethanolamine. The final densities on flow cells 2 and 3 were about 2,100 RU. The affinities of the various compounds for DC-SIGN ECD were evaluated via an established inhibition assay (Andreini et al., [2011]) in which DCSIGN ECD was injected at 20 μM alone or in the presence of increasing concentration of inhibitors. Injections were performed at 5 μL/min using 25 mM Tris-HCl pH 8, 150 mM NaCl, 4 mM CaCl2, 0.05% P20 surfactant as running buffer. The surface was regenerated by the injection of 50 mM EDTA. The data was analyzed in BIAcore BIAevaluation software using four parameter equation.

Consider `CC(=O)N[C@@H](CCCCn1cc(CO[C@H]2O[C@H](CO)[C@@H](O)[C@H](O)[C@@H]2O)nn1)C(=O)N[C@@H](CCCCn1cc(CO[C@H]2O[C@H](CO)[C@@H](O)[C@H](O)[C@@H]2O)nn1)C(=O)N[C@@H](CCCCn1cc(CO[C@H]2O[C@H](CO)[C@@H](O)[C@H](O)[C@@H]2O)nn1)C(=O)N[C@@H](CCCCn1cc(CO[C@H]2O[C@H](CO)[C@@H](O)[C@H](O)[C@@H]2O)nn1)C(=O)N[C@@H](CCCCn1cc(CO[C@H]2O[C@H](CO)[C@@H](O)[C@H](O)[C@@H]2O)nn1)C(=O)N[C@@H](CCCCn1cc(CO[C@H]2O[C@H](CO)[C@@H](O)[C@H](O)[C@@H]2O)nn1)C(=O)NCC(=O)N[C@@H](CCCCN)C(N)=O` [A6], for which, at DC-SIGN S-ECD, the Kd is 7.82 ± 0.44 µM. In addition, in the assay on DC-SIGN on moDC, the “binding to DC-SIGN on moDC” value was “significantly higher binding”. For the compound `CC(=O)N[C@@H](CCCCn1cc(CO[C@H]2O[C@H](CO)[C@@H](O)[C@H](O)[C@@H]2O)nn1)C(=O)NCC(=O)N[C@@H](CCCCn1cc(CO[C@H]2O[C@H](CO)[C@@H](O)[C@H](O)[C@@H]2O)nn1)C(=O)NCC(=O)N[C@@H](CCCCn1cc(CO[C@H]2O[C@H](CO)[C@@H](O)[C@H](O)[C@@H]2O)nn1)C(=O)NCC(=O)N[C@@H](CCCCN)C(N)=O` [A3], the IC50 (in general, the concentration that inhibits the measured activity by half) at DC-SIGN ECD amounted to 736.7 ± 3.4 µM. As to `CC(=O)N[C@@H](CCCCn1cc(CO[C@H]2O[C@H](CO)[C@@H](O)[C@H](O[C@H]3O[C@H](CO)[C@@H](O)[C@H](O)[C@@H]3O)[C@@H]2O)nn1)C(=O)NCC(=O)N[C@@H](CCCCn1cc(CO[C@H]2O[C@H](CO)[C@@H](O)[C@H](O[C@H]3O[C@H](CO)[C@@H](O)[C@H](O)[C@@H]3O)[C@@H]2O)nn1)C(=O)NCC(=O)N[C@@H](CCCCN)C(N)=O` [C2], the 50% inhibitory concentration (IC50) on DC-SIGN ECD was found to be 567.4 ± 1.15 µM. Still for that read-out and setting: then `CC(=O)N[C@@H](CCCCn1cc(CO[C@H]2O[C@H](CO[C@H]3O[C@H](CO)[C@@H](O)[C@H](O)[C@@H]3O)[C@@H](O)[C@H](O)[C@@H]2O)nn1)C(=O)NCC(=O)N[C@@H](CCCCn1cc(CO[C@H]2O[C@H](CO[C@H]3O[C@H](CO)[C@@H](O)[C@H](O)[C@@H]3O)[C@@H](O)[C@H](O)[C@@H]2O)nn1)C(=O)NCC(=O)N[C@@H](CCCCN)C(N)=O` [D2], with 410.9 ± 0.3 µM.

`CC(=O)N[C@@H](CCCCn1cc(CO[C@H]2O[C@H](CO[C@H]3O[C@H](CO)[C@@H](O)[C@H](O)[C@@H]3O)[C@@H](O)[C@H](O[C@H]3O[C@H](CO)[C@@H](O)[C@H](O)[C@@H]3O)[C@@H]2O)nn1)C(=O)NCC(=O)N[C@@H](CCCCn1cc(CO[C@H]2O[C@H](CO[C@H]3O[C@H](CO)[C@@H](O)[C@H](O)[C@@H]3O)[C@@H](O)[C@H](O[C@H]3O[C@H](CO)[C@@H](O)[C@H](O)[C@@H]3O)[C@@H]2O)nn1)C(=O)NCC(=O)N[C@@H](CCCCN)C(N)=O` [E2]: the IC50 at DC-SIGN ECD turned out to be 306 ± 4.75 µM.

`CC(=O)N[C@@H](CCCCn1cc(CO[C@H]2O[C@H](CO)[C@@H](O)[C@H](O)[C@@H]2O)nn1)C(=O)NCC(=O)N[C@@H](CCCCn1cc(CO[C@H]2O[C@H](CO)[C@@H](O)[C@H](O)[C@@H]2O)nn1)C(=O)NCC(=O)N[C@@H](CCCCN)C(N)=O` [A2] returned an IC50 on DC-SIGN ECD of 2600 ± 95 µM.

The values are drawn from paper PMC6787163, “Systematic Dual Targeting of Dendritic Cell C-Type Lectin Receptor DC-SIGN and TLR7 Using a Trifunctional Mannosylated Antigen” (Frontiers in Chemistry, 2019).
